Reference: patent US20020142362A1, “Colorimetric assay system using thiopeptolide substrate for detection of membrane-type matrix metalloproteinase” (priority 2000, published 2002)
Numbered stars: 1 amine (or outer) side, 2 acyl side, 3 side chain; on linkers, the order of the positions; unused ones are H or OH. Bridge positions count the residues as written; N and C are the ends. Square brackets hold non-standard residues; d marks the D form. Peptide text beside a SMILES is read from it. I, II: the chains in the order shown. Actinocin(9to1) = Cc1c2oc3c(C)ccc(C(=O)[*:1])c3nc-2c(C(=O)[*:2])c(N)c1=O; NMeV = CN[C@H](C(=O)O)C(C)C; Sar = CNCC(=O)O

Experiments:
MT1-MMP [1] = conditions: HT-1080, in vitro incubation; cited from earlier work
MT1-MMP [2] = test: Thiopeptolide assay on HT-1080 cells; format: cell-based, Human
From the text: The activation of proGelatinase A was shown in the noted Lohi and Stanton work to be inhibitable by tissue inhibitor of [matrix] metalloproteinases-2 (TIMP-2), and by a synthetic hydroxamate inhibitor of MMP's, but not by metalloproteinases-1 (TIMP-1). As additional evidence that the subject assay detects MT1-MMP in human and non-human primate TM cells, the zymographic results of the Lohi and Stanton work were reproduced using the subject assay, using the same methodology as described herein for TM cells, with […] and […].

proGelatinase A [3] = conditions: cited from earlier work; for activation of Gelatinase A from the proenzyme form (zymography): HT-1080, in vitro incubation
proGelatinase A [4] = test: Zymography of conditioned medium from cultured TM cells; format: cell-based
MT-MMP [5] = test: Thiopeptolide assay on excised trabecular meshwork from human anterior segment organ culture; format: cell-based
Procedure: (§1) The assay of the present invention may be made by first preparing the selected biological sample and assay buffer. To prepare the biological sample, the biological sample such as but not limited to cultured cells were placed in microtiter plates and incubated at approximately 37° C. for up to approximately 96 hours with serum-free, defined medium. A portion of the serum-free, defined medium contained test compounds, while another portion was maintained free of test compounds to serve as controls. In some cases, the biological sample was then processed as a permeabilized “ghost” as described in Example 1 below. The biological sample was then rinsed several times with cold isotonic balanced saline or Tris(hydroxymethyl)aminomethane (TRIS) buffer at pH 7.2 - 7.5. The saline or buffer was then replaced by filter-sterilized, isotonic assay buffer (295 mOsm) consisting of approximately 50 mmol/L N-[2-hydroxyethyl]piperazine-N′-[2-ethane sulfonic acid] (HEPES), approximately 106 mmol/L sodium chloride, approximately 3.5 mmol/L potassium chloride, approximately 5 mmol/L calcium chloride, and approximately 0.02% (v/v) polyoxyethylene 23 lauryl ether (Brij 35) or a similar detergent, final pH approximately 7.5, at approximately room temperature. The Brij 35 was added fresh, and the final mixture was protected from excessive light exposure. The volume of assay buffer for each biological sample was approximately one-half the final assay mixture volume, the other half being made up of the thiopeptolide substrate/thiol reagent solution. For example, when 96-well microtiter plates were employed, the assay mixture volume was approximately 200 microliters.
Next the thiopeptolide substrate/thiol reagent solution was prepared. Preferably, the synthetic thiopeptolide substrate acetyl-prolyl-leucyl-glycyl-[2-mercapto-4-methyl-pentanoyl]-leucyl-glycyl-ethyl ester (Bachem Bioscience, Inc., King of Prussia, Pa.) is used in the solution due to its ready availability. The synthetic thiopeptolide was stored as a 40X, 20 mmol/L stock in DMSO, sealed from light and air, and stored with desiccant at approximately −70° C.. […]
The assay reaction was then allowed to progress to a suitable endpoint beyond which no further color reaction proceeded, possibly due to product inhibition. […] Once the endpoint was reached the microtiter plates were placed into a plate reader and optical density (OD) was measured at 410 nm. Blank values, the OD readings for samples without cells, used to assess non-enzymatic, non-specific hydrolysis of substrate, were then subtracted from all sample OD measurements. […]

MT-MMP [6] = test: Thiopeptolide assay on cultured trabecular meshwork cells (digitonin-permeabilized); format: cell-based, Rhesus monkey; conditions: for thiopeptolide assay result versus control CACM: control cells (no Con A), 1 hour preincubation + 24 hours
Procedure: as §1
Next the thiopeptolide substrate/thiol reagent solution was prepared. Preferably, the synthetic thiopeptolide substrate acetyl-prolyl-leucyl-glycyl-[2-mercapto-4-methyl-pentanoyl]-leucyl-glycyl-ethyl ester (Bachem Bioscience, Inc., King of Prussia, Pa.) is used in the solution due to its ready availability. The synthetic thiopeptolide was stored as a 40X, 20 mmol/L stock in DMSO, sealed from light and air, and stored with desiccant at approximately −70° C.. The thiol reagent, 4,4-dithiodipyridine,5,5′-dithio bis(2-nitro-benzoic acid) (DTNB) or the like, but preferably DTNB, was prepared as a 100X, 50 mmol/L stock in DMSO, and stored protected from light with desiccant at approximately room temperature. The combined thiopeptolide and DTNB were both diluted to appropriately 1 mmol/L in assay buffer without Brij 35 to yield a solution that was 2X for both chemicals after thorough mixing. The assay reaction was started when this 2X solution was added in a 1:1 ratio, with thorough mixing, to the assay buffer in which the cells had been equilibrated. The final concentration of both thiopeptolide and DTNB were 0.5 mmol/L.
The assay reaction was then allowed to progress to a suitable endpoint beyond which no further color reaction proceeded, possibly due to product inhibition. This endpoint is usually reached after approximately two hours. During the two hours the samples were gently agitated in an approximately 37° C. humidified incubator. Once the endpoint was reached the microtiter plates were placed into a plate reader and optical density (OD) was measured at 410 nm. Blank values, the OD readings for samples without cells, used to assess non-enzymatic, non-specific hydrolysis of substrate, were then subtracted from all sample OD measurements. The OD measurements taken at 410 nm may be used as a measure of the amount of MT-MMP present on the samples. The effects of experimental conditions on the expression of MT-MMP may then be compared with that of the control samples.
Details of the signal transduction process initiated by Con A culminating in proGelatinase A activation by MT-MMP remained to be elucidated. […]

MT-MMP [7] = test: Thiopeptolide assay on cultured TM cells with protease inhibitors; format: cell-based
From the text: Evidence has been presented by Mazzieri, et al., EMBO Journal 16: 2319-2332 (1997) that the urokinase-plasmin system may be in part responsible for activation of proGelatinase A in some cell systems. It was found in studying the subject thiopeptolide assay that a lesser fraction of the subject thiopeptolide assay activity could be inhibited by serine protease inhibitors, which are ineffective with MMP's. However, when these latter inhibitors were employed with TM cells stimulated by Con A, the percentage increase in thiopeptolide assay activity, compared to control cultures, was in fact augmented due to the Con A treatment.

[8] = Con A-treated cells (10 ug/ml), inhibitor 1 hour preincubation, then Con A plus inhibitor 24 hours, Act D 500 ng/ml, CHX 20 ug/ml

| Compound | expression of MT1-MMP (Western immunoblot) (MT1-MMP [1]) | activity in thiopeptolide assay following treatment (MT1-MMP [2]) | activation of Gelatinase A from the proenzyme form (zymography) (proGelatinase A [3]) | MT-MMP activity in thiopeptolide assay versus control CACM (MT-MMP [6]; [8]) | thiopeptolide assay result versus control CACM (MT-MMP [6]; Act D 500 ng/ml, CHX 20 ug/ml) | also measured |
| --- | --- | --- | --- | --- | --- | --- |
| CCCCCCCCCCCCCC(=O)O[C@@H]1[C@@H](C)[C@@]2(O)[C@@H](C=C(CO)C[C@]3(O)C(=O)C(C)=C[C@@H]23)[C@@H]2C(C)(C)[C@]12OC(C)=O [PMA, phorbol 12-myristate 13-acetate] | increase expression | Increased activity | activate |  |  |  |
| Concanavalin A [Con A] | increase expression | Increased activity | activate |  |  | activation of proGelatinase A (zymography) (proGelatinase A [4]): robust activation; OD readings over control (MT-MMP [5]; 100 ug/ml Con A): 200%; OD readings over control (MT-MMP [5]; 30 - 80 ug/ml Con A): approximately 100%; thiopeptolide assay result versus control medium (MT-MMP [5]; Con A below 30 ug/ml): indistinguishable from simply incubating anterior segment quadrants in control medium; threshold Con A concentration for MT-MMP expression in intact TM (MT-MMP [5]; human anterior segment quadrants, 24 + 18 hour incubation): 30 µg/mL; MT-MMP expression over control levels (OD 410 nm, thiopeptolide assay) (MT-MMP [6]; Con A 10 ug/ml in CACM, 24 hours, vs control CACM): more than 200% |
| Cc1c2oc3c(C)ccc(C(=O)N[C@@H]4C(=O)N[C@H](C(C)C)C(=O)N5CCC[C@H]5C(=O)N(C)CC(=O)N(C)[C@@H](C(C)C)C(=O)O[C@@H]4C)c3nc-2c(C(=O)N[C@@H]2C(=O)N[C@H](C(C)C)C(=O)N3CCC[C@H]3C(=O)N(C)CC(=O)N(C)[C@@H](C(C)C)C(=O)O[C@@H]2C)c(N)c1=O [Act D, actinomycin D] (I: T[dV]P[Sar][NMeV] / II: T[dV]P[Sar][NMeV]; ester I:1-I:C, II:1-II:C; linker I:N-II:N via Actinocin(9to1)) |  |  |  | slightly, but discernibly, higher than control | not significantly different from control CACM alone | MT-MMP activity in thiopeptolide assay versus control CACM (MT-MMP [6]; Con A for 6 hrs, then Con A plus Act D for 18 hours): slightly, but discernibly, higher than control |
| C[C@@H]1C[C@@H]([C@H](O)CC2CC(=O)NC(=O)C2)C(=O)[C@@H](C)C1 [CHX, cycloheximide] |  |  |  | not significantly different from control CACM alone | not significantly different from control CACM alone |  |
| TIMP-1: metalloproteinases-1 (TIMP-1), tissue inhibitor of metalloproteinases |  |  |  |  |  | inhibition of activity increases in thiopeptolide assay (MT-MMP [7]): not; inhibition of activation of proGelatinase A (proGelatinase A [3]; HT-1080, Lohi and Stanton work): not |
